Data as given in ChEMBL document CHEMBL3272348, “Synthesis and pharmacology of 2,9alpha-dimethyl-2'-hydroxy-6,7-benzomorphan” (J Med Chem, 1976).
Activity calls are given as the source filed them. The rule behind the calls is not given here.

What was measured:
[1] = test system: Rhesus monkey; experiment: Narcotic antagonist activity in morphine-dependent monkey; format: functional, organism-based; conditions: Macaca mulatta
[2] = test system: Mus musculus; experiment: Analgesic activity in sc dosed white mouse by hot plate method; format: functional
[3] = test system: Rhesus monkey; experiment: Precipitation of abstinence syndrome of long duration in morphine-dependent monkey assessed as abdominal cramps; format: ADME, organism-based, Macaca mulatta, Abdomen; conditions: in vivo
[4] = test system: Rhesus monkey; experiment: Precipitation of abstinence syndrome of long duration in morphine-dependent monkey assessed as irritability; format: ADME, organism-based, Macaca mulatta; conditions: in vivo
[5] = test system: Rhesus monkey; experiment: Precipitation of abstinence syndrome of long duration in morphine-dependent monkey assessed as hyperexcitability; format: ADME, organism-based, Macaca mulatta; conditions: in vivo
[6] = test system: Rhesus monkey; experiment: Precipitation of abstinence syndrome of long duration in morphine-dependent monkey assessed as movement within cage; format: ADME, organism-based, Macaca mulatta; conditions: in vivo

Compound | Activity [1] | ED50 [2] | Activity [3] | Activity [4] | Activity [5] | Activity [6]
CN1CC[C@@H]2CC1Cc1ccc(O)cc12 | Active | – | – | – | – | –
C[C@H]1C2Cc3ccc(O)cc3[C@@H]1CCN2C | – | 4.3 mg/kg | Toxic | Toxic | Non-toxic | Non-toxic
CCOC(=O)C1(c2ccccc2)CCN(C)CC1 [MEPERIDINE] | – | 4.5 mg/kg | – | – | – | –
C[C@@H]1C2Cc3ccc(O)cc3[C@@H]1CCN2C | Active | 1.1 mg/kg | Toxic | Toxic | Non-toxic | Non-toxic
CN1CC[C@]23c4c5ccc(O)c4O[C@H]2[C@@H](O)C=C[C@H]3[C@H]1C5 [MORPHINE] | – | 1.2 mg/kg | – | – | – | –
